How the values were obtained:
Format in all cases: cell-based
[1] = biological target: T1, IKZF3 (Homo sapiens, UniProt Q96SW2+Q9UKT9); experiment: Western-blot assay, substrate protein degradation in hPBMCs: IKZF3; conditions: for IKZF3 substrate protein remaining %: compounds at 50 nM and 500 nM, 24 hours; for substrate protein remaining % IKZF3: 24 hours of compound treatment, 50 nM and 500 nM
T1 construct: effects of the compounds of the present disclosure on the expression of target proteins in cells; endogenous in cells; host or cells: human PBMCs (hPBMCs)

[2] = biological target: T2, GSPT1 (Homo sapiens, UniProt P15170+Q96SW2); experiment: Western-blot assay, substrate protein degradation in hPBMCs: GSPT1; conditions: for GSPT1 substrate protein remaining %: compounds at 50 nM and 500 nM, 24 hours; for substrate protein remaining % GSPT1: 24 hours of compound treatment, 50 nM and 500 nM
T2 construct: effects of the compounds of the present disclosure on the expression of target proteins in cells; endogenous in cells; host or cells: human PBMCs (hPBMCs)

[3] = biological target: T3, IKZF2 (Homo sapiens, UniProt Q96SW2+Q9UKS7); experiment: Western-blot assay, substrate protein degradation in hPBMCs: IKZF2; conditions: for IKZF2 substrate protein remaining %: compounds at 50 nM and 500 nM, 24 hours; for substrate protein remaining % IKZF2: 24 hours of compound treatment, 50 nM and 500 nM
T3 construct: effects of the compounds of the present disclosure on the expression of target proteins in cells; endogenous in cells; host or cells: human PBMCs (hPBMCs)

[4] = biological target: T4, IKZF1 (Homo sapiens, UniProt Q13422+Q96SW2); experiment: Western-blot assay, substrate protein degradation in hPBMCs: IKZF1; conditions: for IKZF1 substrate protein remaining %: compounds at 50 nM and 500 nM, 24 hours; for substrate protein remaining % IKZF1: 24 hours of compound treatment, 50 nM and 500 nM
T4 construct: effects of the compounds of the present disclosure on the expression of target proteins in cells; endogenous in cells; host or cells: human PBMCs (hPBMCs)

[5] = biological target: T5, CK1α (Homo sapiens, UniProt P48729+Q96SW2); experiment: Western-blot assay, substrate protein degradation in hPBMCs: CK1α; conditions: for CK1α substrate protein remaining %: compounds at 50 nM and 500 nM, 24 hours; for substrate protein remaining % CK1α: 24 hours of compound treatment, 50 nM and 500 nM
T5 construct: effects of the compounds of the present disclosure on the expression of target proteins in cells; endogenous in cells; host or cells: human PBMCs (hPBMCs)

[6] = biological target: T6, WEE1 (Homo sapiens, UniProt P30291+Q96SW2); experiment: Western-blot assay, substrate protein degradation in hPBMCs: WEE1; conditions: for WEE1 substrate protein remaining %: compounds at 50 nM and 500 nM, 24 hours; for substrate protein remaining % WEE1: 24 hours of compound treatment, 50 nM and 500 nM
T6 construct: effects of the compounds of the present disclosure on the expression of target proteins in cells; endogenous in cells; host or cells: human PBMCs (hPBMCs)
T6 sequence (P30291 whole entry): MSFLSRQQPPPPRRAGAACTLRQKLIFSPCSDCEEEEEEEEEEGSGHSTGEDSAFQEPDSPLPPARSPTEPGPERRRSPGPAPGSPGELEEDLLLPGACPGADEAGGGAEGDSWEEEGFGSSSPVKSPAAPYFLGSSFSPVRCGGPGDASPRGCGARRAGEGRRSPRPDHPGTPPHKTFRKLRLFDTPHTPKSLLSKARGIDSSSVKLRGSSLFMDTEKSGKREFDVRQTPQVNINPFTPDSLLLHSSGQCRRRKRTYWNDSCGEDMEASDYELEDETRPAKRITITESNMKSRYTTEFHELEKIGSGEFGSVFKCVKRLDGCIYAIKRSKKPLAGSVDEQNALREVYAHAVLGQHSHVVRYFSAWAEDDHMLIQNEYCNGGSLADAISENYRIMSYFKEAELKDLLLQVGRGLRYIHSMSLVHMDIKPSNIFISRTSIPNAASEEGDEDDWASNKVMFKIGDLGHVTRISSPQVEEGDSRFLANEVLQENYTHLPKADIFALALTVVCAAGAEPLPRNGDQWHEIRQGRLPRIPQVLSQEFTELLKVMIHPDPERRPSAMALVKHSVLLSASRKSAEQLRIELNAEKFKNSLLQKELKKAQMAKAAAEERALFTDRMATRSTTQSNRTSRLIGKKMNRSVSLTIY
T6 sequence (Q96SW2 whole entry): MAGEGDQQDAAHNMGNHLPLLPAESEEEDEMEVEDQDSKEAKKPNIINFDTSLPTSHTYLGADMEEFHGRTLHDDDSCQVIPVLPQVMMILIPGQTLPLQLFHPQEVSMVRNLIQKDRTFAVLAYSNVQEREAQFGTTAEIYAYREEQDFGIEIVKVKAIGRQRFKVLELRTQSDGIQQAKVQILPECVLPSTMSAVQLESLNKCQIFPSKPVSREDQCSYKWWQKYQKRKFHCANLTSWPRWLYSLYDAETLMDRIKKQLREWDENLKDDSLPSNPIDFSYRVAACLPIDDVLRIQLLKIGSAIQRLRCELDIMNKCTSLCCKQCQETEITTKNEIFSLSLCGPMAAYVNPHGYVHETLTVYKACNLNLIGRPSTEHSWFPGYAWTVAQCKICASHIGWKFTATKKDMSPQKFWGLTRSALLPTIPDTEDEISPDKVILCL
T6 sequence (Q16531 whole entry partner): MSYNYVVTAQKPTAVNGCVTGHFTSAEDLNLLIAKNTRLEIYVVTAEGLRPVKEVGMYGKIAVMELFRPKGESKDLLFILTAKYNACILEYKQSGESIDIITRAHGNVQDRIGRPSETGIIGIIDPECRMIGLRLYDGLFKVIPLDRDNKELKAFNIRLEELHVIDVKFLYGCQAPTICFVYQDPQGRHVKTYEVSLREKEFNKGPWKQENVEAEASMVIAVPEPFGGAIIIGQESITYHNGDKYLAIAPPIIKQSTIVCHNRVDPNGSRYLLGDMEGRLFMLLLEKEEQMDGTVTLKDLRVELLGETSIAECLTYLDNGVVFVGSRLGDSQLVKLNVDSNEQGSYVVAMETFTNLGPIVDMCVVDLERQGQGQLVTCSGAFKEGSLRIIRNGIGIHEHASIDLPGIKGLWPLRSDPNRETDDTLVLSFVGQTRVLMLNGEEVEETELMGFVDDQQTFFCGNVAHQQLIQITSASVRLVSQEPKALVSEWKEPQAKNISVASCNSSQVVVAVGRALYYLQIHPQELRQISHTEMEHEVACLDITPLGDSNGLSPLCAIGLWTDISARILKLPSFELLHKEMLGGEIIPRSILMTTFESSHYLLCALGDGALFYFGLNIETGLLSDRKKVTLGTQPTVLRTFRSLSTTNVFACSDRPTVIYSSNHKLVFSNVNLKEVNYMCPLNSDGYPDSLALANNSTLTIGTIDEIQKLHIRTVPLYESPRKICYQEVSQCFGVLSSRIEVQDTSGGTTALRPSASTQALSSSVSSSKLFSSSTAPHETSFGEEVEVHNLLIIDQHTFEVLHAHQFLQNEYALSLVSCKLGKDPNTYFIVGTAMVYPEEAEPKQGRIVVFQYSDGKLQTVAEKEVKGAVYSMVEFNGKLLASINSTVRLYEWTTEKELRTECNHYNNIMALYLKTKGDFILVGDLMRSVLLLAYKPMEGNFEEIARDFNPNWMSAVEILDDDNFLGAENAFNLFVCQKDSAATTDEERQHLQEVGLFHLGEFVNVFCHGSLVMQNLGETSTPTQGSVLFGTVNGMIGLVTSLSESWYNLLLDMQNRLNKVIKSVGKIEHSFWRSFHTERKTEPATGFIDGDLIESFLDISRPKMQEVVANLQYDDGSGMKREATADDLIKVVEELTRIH

T5 sequence (P48729 whole entry): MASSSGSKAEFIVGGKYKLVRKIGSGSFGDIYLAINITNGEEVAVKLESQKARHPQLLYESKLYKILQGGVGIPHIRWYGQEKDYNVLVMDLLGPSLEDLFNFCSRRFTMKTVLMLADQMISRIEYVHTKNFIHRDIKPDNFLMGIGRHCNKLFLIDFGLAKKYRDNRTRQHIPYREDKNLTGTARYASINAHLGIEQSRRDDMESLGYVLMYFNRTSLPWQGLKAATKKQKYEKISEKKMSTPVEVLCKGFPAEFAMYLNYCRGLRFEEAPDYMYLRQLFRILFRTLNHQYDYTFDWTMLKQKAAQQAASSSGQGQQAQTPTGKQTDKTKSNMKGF
T5 sequence (Q96SW2 whole entry): as the sequence (Q96SW2 whole entry) above
T5 sequence (Q16531 whole entry partner): as the sequence (Q16531 whole entry partner) above
T3 sequence (Q9UKS7 whole entry): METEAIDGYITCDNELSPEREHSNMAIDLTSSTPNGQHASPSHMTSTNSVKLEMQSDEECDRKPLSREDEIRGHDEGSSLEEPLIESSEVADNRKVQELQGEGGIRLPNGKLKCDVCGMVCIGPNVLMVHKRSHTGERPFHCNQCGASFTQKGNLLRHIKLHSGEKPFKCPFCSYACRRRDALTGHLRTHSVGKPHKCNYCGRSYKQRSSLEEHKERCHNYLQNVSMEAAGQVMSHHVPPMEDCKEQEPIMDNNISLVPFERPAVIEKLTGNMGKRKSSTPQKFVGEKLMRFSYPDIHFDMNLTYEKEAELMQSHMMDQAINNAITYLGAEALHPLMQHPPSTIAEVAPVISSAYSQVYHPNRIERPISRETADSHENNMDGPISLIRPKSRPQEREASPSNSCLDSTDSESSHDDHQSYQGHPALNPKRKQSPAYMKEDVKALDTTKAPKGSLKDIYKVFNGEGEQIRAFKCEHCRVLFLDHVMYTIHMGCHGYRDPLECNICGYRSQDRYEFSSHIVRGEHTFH
T3 sequence (Q96SW2 whole entry): as the sequence (Q96SW2 whole entry) above
T3 sequence (Q16531 whole entry partner): as the sequence (Q16531 whole entry partner) above
T1 sequence (Q9UKT9 whole entry): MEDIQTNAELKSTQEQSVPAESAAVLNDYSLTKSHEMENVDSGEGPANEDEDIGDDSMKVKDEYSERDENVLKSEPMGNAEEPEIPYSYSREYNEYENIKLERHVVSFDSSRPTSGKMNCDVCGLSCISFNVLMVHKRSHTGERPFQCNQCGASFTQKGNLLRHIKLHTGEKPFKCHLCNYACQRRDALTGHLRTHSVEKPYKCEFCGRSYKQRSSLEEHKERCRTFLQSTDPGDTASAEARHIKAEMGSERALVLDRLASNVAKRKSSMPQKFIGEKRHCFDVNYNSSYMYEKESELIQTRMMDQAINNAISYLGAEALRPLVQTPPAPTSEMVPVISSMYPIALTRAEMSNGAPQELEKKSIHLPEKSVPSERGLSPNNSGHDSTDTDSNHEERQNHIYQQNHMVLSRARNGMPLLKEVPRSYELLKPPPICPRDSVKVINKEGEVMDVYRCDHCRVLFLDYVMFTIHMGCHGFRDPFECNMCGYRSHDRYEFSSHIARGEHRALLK
T1 sequence (Q96SW2 whole entry): as the sequence (Q96SW2 whole entry) above
T1 sequence (Q16531 whole entry partner): as the sequence (Q16531 whole entry partner) above
T2 sequence (P15170 whole entry): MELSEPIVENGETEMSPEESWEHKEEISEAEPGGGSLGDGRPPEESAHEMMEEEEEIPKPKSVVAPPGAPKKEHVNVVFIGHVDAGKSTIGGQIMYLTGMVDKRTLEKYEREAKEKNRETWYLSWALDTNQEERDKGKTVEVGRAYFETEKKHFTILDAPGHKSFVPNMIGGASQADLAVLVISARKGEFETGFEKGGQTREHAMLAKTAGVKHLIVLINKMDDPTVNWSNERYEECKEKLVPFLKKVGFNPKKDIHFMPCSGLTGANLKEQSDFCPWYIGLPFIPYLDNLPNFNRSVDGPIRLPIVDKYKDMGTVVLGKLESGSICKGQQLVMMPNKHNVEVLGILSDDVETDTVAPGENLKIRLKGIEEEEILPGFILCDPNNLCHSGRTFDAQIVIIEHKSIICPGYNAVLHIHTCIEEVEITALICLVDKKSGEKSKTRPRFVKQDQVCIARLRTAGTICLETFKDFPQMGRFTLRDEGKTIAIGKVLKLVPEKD
T2 sequence (Q96SW2 whole entry): as the sequence (Q96SW2 whole entry) above
T2 sequence (Q16531 whole entry partner): as the sequence (Q16531 whole entry partner) above

Row | Structure (SMILES) | IKZF3 substrate protein remaining % [1] | GSPT1 substrate protein remaining % [2] | IKZF2 substrate protein remaining % [3] | IKZF1 substrate protein remaining % [4] | CK1α substrate protein remaining % [5] | WEE1 substrate protein remaining % [6] | substrate protein remaining % IKZF3 [1] | substrate protein remaining % GSPT1 [2] | substrate protein remaining % IKZF2 [3] | substrate protein remaining % IKZF1 [4] | substrate protein remaining % CK1α [5] | substrate protein remaining % WEE1 [6]
1 | Cc1cccc(N2CCN(Cc3ccc4c(c3)CN(N3CCC(=O)NC3=O)C4=O)CC2)n1 [GT-05125, 1-(5-((4-(6-methylpyridin-2-yl)piperazin-1-yl)methyl)-1-oxoisoindolin-2-yl)dihydropyrimidine-2,4(1H,3H)-dione] | A ("A" is defined as 0% ≤ substrate protein remaining % ≤ 80%) | A ("A" is defined as 0% ≤ substrate protein remaining % ≤ 80%) | B ("B" is defined as 80%< substrate protein remaining %≤ 100%) | A ("A" is defined as 0% ≤ substrate protein remaining % ≤ 80%) | A ("A" is defined as 0% ≤ substrate protein remaining % ≤ 80%) | A ("A" is defined as 0% ≤ substrate protein remaining % ≤ 80%) | – | – | – | – | – | –
2 | O=C1CCN(N2C(=O)c3ccc(CN4C5CCC4CN(c4cccc(Cl)c4Cl)C5)cc3C2=O)C(=O)N1 [GT-07438, 5-((3-(2,3-dichlorophenyl)-3,8-diazabicyclo[3.2.1]octan-8-yl)methyl)-2-(2,4-dioxotetrahydropyrimidin-1(2H)-yl)isoindoline-1,3-dione] | – | – | – | – | – | – | B (80%< substrate protein remaining %≤ 100%) | A (0% ≤ substrate protein remaining % ≤ 80%) | B (80%< substrate protein remaining %≤ 100%) | B (80%< substrate protein remaining %≤ 100%) | A (0% ≤ substrate protein remaining % ≤ 80%) | A (0% ≤ substrate protein remaining % ≤ 80%)
3 | O=C1CCN(N2C(=O)c3ccc(CN4CCN(c5ncnc(Cl)c5Cl)CC4)cc3C2=O)C(=O)N1 [GT-07034, 5-((4-(5,6-dichloropyrimidin-4-yl)piperazin-1-yl)methyl)-2-(2,4-dioxotetrahydropyrimidin-1(2H)-yl)isoindoline-1,3-dione] | A ("A" is defined as 0% ≤ substrate protein remaining % ≤ 80%) | A ("A" is defined as 0% ≤ substrate protein remaining % ≤ 80%) | A ("A" is defined as 0% ≤ substrate protein remaining % ≤ 80%) | A ("A" is defined as 0% ≤ substrate protein remaining % ≤ 80%) | A ("A" is defined as 0% ≤ substrate protein remaining % ≤ 80%) | A ("A" is defined as 0% ≤ substrate protein remaining % ≤ 80%) | – | – | – | – | – | –
4 | Cc1nc(C2CCN(Cc3ccc4c(c3)C(=O)N(N3CCC(=O)NC3=O)C4=O)CC2)c2ccsc2n1 [GT-05272, 2-(2,4-dioxotetrahydropyrimidin-1(2H)-yl)-5-((4-(2-methylthieno[2,3-d]pyrimidin-4-yl)piperidin-1-yl)methyl)isoindoline-1,3-dione] | B ("B" is defined as 80%< substrate protein remaining %≤ 100%) | B ("B" is defined as 80%< substrate protein remaining %≤ 100%) | A ("A" is defined as 0% ≤ substrate protein remaining % ≤ 80%) | B ("B" is defined as 80%< substrate protein remaining %≤ 100%) | B ("B" is defined as 80%< substrate protein remaining %≤ 100%) | B ("B" is defined as 80%< substrate protein remaining %≤ 100%) | – | – | – | – | – | –
5 | O=C1CCN(N2C(=O)c3ccc(CN4CCC(c5ccccc5F)CC4)cc3C2=O)C(=O)N1 [GT-06877, 2-(2,4-dioxotetrahydropyrimidin-1(2H)-yl)-5-((4-(2-fluorophenyl)piperidin-1-yl)methyl)isoindoline-1,3-dione] | B ("B" is defined as 80%< substrate protein remaining %≤ 100%) | B ("B" is defined as 80%< substrate protein remaining %≤ 100%) | B ("B" is defined as 80%< substrate protein remaining %≤ 100%) | B ("B" is defined as 80%< substrate protein remaining %≤ 100%) | A ("A" is defined as 0% ≤ substrate protein remaining % ≤ 80%) | B ("B" is defined as 80%< substrate protein remaining %≤ 100%) | – | – | – | – | – | –
6 | O=C1CCN(N2C(=O)c3ccc(CN4CC=C(c5ccoc5)CC4)cc3C2=O)C(=O)N1 [GT-07442, 2-(2,4-dioxotetrahydropyrimidin-1(2H)-yl)-5-((4-(furan-3-yl)-3,6-dihydropyridin-1(2H)-yl)methyl)isoindoline-1,3-dione] | – | – | – | – | – | – | A (0% ≤ substrate protein remaining % ≤ 80%) | A (0% ≤ substrate protein remaining % ≤ 80%) | B (80%< substrate protein remaining %≤ 100%) | B (80%< substrate protein remaining %≤ 100%) | B (80%< substrate protein remaining %≤ 100%) | A (0% ≤ substrate protein remaining % ≤ 80%)
7 | O=C1CCN(N2Cc3cc(CN4CC=C(c5cncc(Cl)c5)CC4)ccc3C2=O)C(=O)N1 [GT-06394, 1-(5-((5-chloro-3',6'-dihydro-[3,4'-bipyridin]-1'(2'H)-yl)methyl)-1-oxoisoindolin-2-yl)dihydropyrimidine-2,4(1H,3H)-dione] | B ("B" is defined as 80%< substrate protein remaining %≤ 100%) | A ("A" is defined as 0% ≤ substrate protein remaining % ≤ 80%) | A ("A" is defined as 0% ≤ substrate protein remaining % ≤ 80%) | B ("B" is defined as 80%< substrate protein remaining %≤ 100%) | A ("A" is defined as 0% ≤ substrate protein remaining % ≤ 80%) | B ("B" is defined as 80%< substrate protein remaining %≤ 100%) | – | – | – | – | – | –
8 | O=C1CCN(N2C(=O)c3ccc(CN4CCN(c5cnnc(Cl)c5Cl)CC4)cc3C2=O)C(=O)N1 [GT-07035, 5-((4-(5,6-dichloropyridazin-4-yl)piperazin-1-yl)methyl)-2-(2,4-dioxotetrahydropyrimidin-1(2H)-yl)isoindoline-1,3-dione] | A ("A" is defined as 0% ≤ substrate protein remaining % ≤ 80%) | A ("A" is defined as 0% ≤ substrate protein remaining % ≤ 80%) | B ("B" is defined as 80%< substrate protein remaining %≤ 100%) | B ("B" is defined as 80%< substrate protein remaining %≤ 100%) | A ("A" is defined as 0% ≤ substrate protein remaining % ≤ 80%) | B ("B" is defined as 80%< substrate protein remaining %≤ 100%) | – | – | – | – | – | –
9 | O=C1CCN(N2Cc3cc(CN4CCC(c5ccc(Cl)cc5)CC4)ccc3C2=O)C(=O)N1 [GT-06888, 1-(5-((4-(4-chlorophenyl)piperidin-1-yl)methyl)-1-oxoisoindolin-2-yl)dihydropyrimidine-2,4(1H,3H)-dione] | B ("B" is defined as 80%< substrate protein remaining %≤ 100%) | A ("A" is defined as 0% ≤ substrate protein remaining % ≤ 80%) | A ("A" is defined as 0% ≤ substrate protein remaining % ≤ 80%) | B ("B" is defined as 80%< substrate protein remaining %≤ 100%) | B ("B" is defined as 80%< substrate protein remaining %≤ 100%) | A ("A" is defined as 0% ≤ substrate protein remaining % ≤ 80%) | – | – | – | – | – | –
10 | Cc1cc(N2CCN(Cc3ccc4c(c3)CN(N3CCC(=O)NC3=O)C4=O)CC2)ccn1 [GT-05438, 1-(5-((4-(2-methylpyridin-4-yl)piperazin-1-yl)methyl)-1-oxoisoindolin-2-yl)dihydropyrimidine-2,4(1H,3H)-dione] | – | – | – | – | – | – | A (0% ≤ substrate protein remaining % ≤ 80%) | A (0% ≤ substrate protein remaining % ≤ 80%) | B (80%< substrate protein remaining %≤ 100%) | A (0% ≤ substrate protein remaining % ≤ 80%) | A (0% ≤ substrate protein remaining % ≤ 80%) | A (0% ≤ substrate protein remaining % ≤ 80%)
11 | COc1cccc(N2CCN(Cc3ccc4c(c3)C(=O)N(N3CCC(=O)NC3=O)C4=O)CC2)c1 [GT-06721, 2-(2,4-dioxotetrahydropyrimidin-1(2H)-yl)-5-((4-(3-methoxyphenyl)piperazin-1-yl)methyl)isoindoline-1,3-dione] | A ("A" is defined as 0% ≤ substrate protein remaining % ≤ 80%) | B ("B" is defined as 80%< substrate protein remaining %≤ 100%) | A ("A" is defined as 0% ≤ substrate protein remaining % ≤ 80%) | A ("A" is defined as 0% ≤ substrate protein remaining % ≤ 80%) | B ("B" is defined as 80%< substrate protein remaining %≤ 100%) | B ("B" is defined as 80%< substrate protein remaining %≤ 100%) | – | – | – | – | – | –
12 | O=C1CCN(N2C(=O)c3ccc(CN4CC=C(c5ccnc6cc(F)ccc56)CC4)cc3C2=O)C(=O)N1 [GT-05261, 2-(2,4-dioxotetrahydropyrimidin-1(2H)-yl)-5-((4-(7-fluoroquinolin-4-yl)-3,6-dihydropyridin-1(2H)-yl)methyl)isoindoline-1,3-dione] | B ("B" is defined as 80%< substrate protein remaining %≤ 100%) | B ("B" is defined as 80%< substrate protein remaining %≤ 100%) | A ("A" is defined as 0% ≤ substrate protein remaining % ≤ 80%) | B ("B" is defined as 80%< substrate protein remaining %≤ 100%) | B ("B" is defined as 80%< substrate protein remaining %≤ 100%) | B ("B" is defined as 80%< substrate protein remaining %≤ 100%) | – | – | – | – | – | –

Source: patent EP4722207A1, “OXOISOINDOLINYL-SUBSTITUTED TETRAHYDROPYRIMIDINEDIONE DERIVATIVE AND USE THEREOF” (Gluetacs Therapeutics (Shanghai) Co., Ltd., priority 2023, dated 2024)
